Three compounds from patent publication US9169255B2, “Caffeinated compounds and compositions for treatment of amyloid diseases and synucleinopathies” (ProteoTech Inc, priority 2011, dated 2015) can be followed below.

Series [1] is described as follows: Plasma and brain pharmacokinetics in mice after intraperitoneal injection. It is filed as in vivo. The conditions noted are these: CD-1 female mice, i.p. injection at 50 mg/kg, 7-60 min post-dose; for AUC / Cmax: mouse, plasma, ip. From the text:
For select compounds in this invention, we have used wild type mice to determine the following plasma pharmacokinetic (PK) parameters: maximal concentration (Cmax), and area under the curve (AUC) as derived from a time versus concentration plot. We have also determined the maximal mouse brain levels, and overall brain exposure over time of select compounds in this invention, expressed as Cmax-brain and AUC-brain, respectively. In order to establish the method, we assessed brain and plasma compound levels over time utilizing 50 mg/kg intraperitoneal (i.p.) injections of 2 control compounds. […] In a typical experiment to assess the compounds in this invention, we used CD-1 female mice with a sample size (n) equal to 4 mice per post-dose time-point (for example, 7, 15, 30, and 60 min post-dose). We chose early time points to assess initial exposure, when we expected plasma and brain exposure to be the high, though we may have missed even higher exposure at earlier time points (between 0 and 7 minutes) since brain and plasma levels were highest in our study at the earliest time point assessed (7 minutes).
For the purpose of these studies, each compound was formulated at 5 mg/mL in 20% polyethylene glycol (PEG)-400 in PBS+0.1% ascorbic acid (w/v). The dose volume was 10 mL/kg of body weight. Mice were administered test compound via intraperitoneal injection, and at about 2-3 minutes before scheduled sacrifice, they were deeply anesthetized with 2.5% avertin. Once anesthetized, whole blood was removed by cardiac puncture, transferred to appropriate EDTA-containing tubes, and immediately chilled on ice. This was followed by complete perfusion of each mouse with >15 ml cold 0.9% saline by cannulation of the left ventricle and clamping of the descending aorta. Brains were harvested, frozen on dry ice and stored at −80° C. for bioanalysis of the test compound. Plasma was extracted from whole blood by standard centrifugation techniques within 1 hour. Compounds were (liquid-liquid) extracted from plasma and brain homogenates using ethyl acetate, followed by HPLC/MS quantitation using methods (i.e. HPLC gradients and mass spectrometry parameters) developed for these novel compounds. All methods established sufficient stability in relevant matrices and solvents, and used internal quantitation controls. Quantitation was achieved using a calibration curve generated with compounds spiked into the appropriate matrix (i.e. 20% PEG-400/PBS+0.1% ascorbic acid). We have established lower limit of quantitative sensitivities of 5-25 ng/ml (plasma) and 5-25 ng/g (brain), sufficient for these studies. Following determination of the brain and plasma concentrations at the various post-dose time points, select plasma (Cmax and AUC) and brain (Cmax-brain and AUC-brain) PK parameters were determined with WinNonLin software (Pharsight Inc). We compared the values determined for the compounds in this invention to the values for the positive control compound that when administered at the same therapeutically relevant route and dose level (i.p. injection at 50 mg/kg) is known to be present in the plasma and the brain at levels sufficient for a biological effect (i.e. reduction of α-synuclein brain levels and improved motor function; data not shown).

Series [2] addresses T1, A53T-mutant human α-synuclein (Homo sapiens, UniProt P37840, A53T).
T1 construct: expressed in transfected cells; host or cells: BE-M17 human neuroblastoma cells
The series can be described thus: Thioflavin S-positive aggregates in rotenone-treated BE-M17 cells overexpressing A53T α-synuclein. In kind it is cell-based. From the text: To test the therapeutic potential of the compounds, a cell-based assay was utilized. In this assay, rotenone is used to induce mitochondrial oxidative stress and cause α-synuclein aggregation. The assay utilizes the binding of the fluorescent dye Thioflavin S to structures with high β-sheet content, including α-synuclein fibrils. Therefore, quantitative assessment of the extent of Thioflavin S-positive staining of fixed cells is used to test the ability of the test compounds to inhibit/prevent or decrease the amount of α-synuclein aggregates relative to cells that were treated with rotenone only. This study is presented in the following examples.
BE-M17 human neuroblastoma cells stably transfected with A53T-mutant human α-synuclein were obtained. Cell culture reagents were obtained from Gibco/Invitrogen, and cells were grown in OPTIMEM supplemented with 10% FBS, Penicillin (100 units/ml), Streptomycin (100 μg/ml) and 500 μg/ml G418 as previously described (Ostrerova-Golts et al., J. Neurosci., 20:6048-6054, 2000).
Thioflavin S is commonly used to detect aggregated protein structures in situ, including in brain tissue (Vallet et al., Acta Neuropathol., 83:170-178, 1992), and cultured cells (Ostrerova-Golts et al., J. Neurosci., 20:6048-6054, 2000), whereas Thioflavin T is often used as an in vitro reagent to analyze the aggregation of soluble proteins into fibrils enriched in β-pleated sheet structures (LeVine III, Prot. Sci., 2:404-410, 1993). Therefore, Thioflavin S histochemistry was used on cultured cells to detect aggregates containing a high degree of β-pleated structures that formed in response to oxidative stress-inducing agents (in this case rotenone) as previously described, with minor modifications (Ostrerova-Golts et al., J. Neurosci., 20:6048-6054, 2000). Briefly, for these studies cells were grown on Poly-D-Lysine coated glass slide chambers at approximately 4.5−5.5×10^4 cells/cm^2. After 16-18 hours, cells were treated with 500 nM or 2 μM rotenone (Sigma) or vehicle (0.05% DMSO) as indicated. Within 15 minutes of rotenone (or vehicle) addition, compounds were added at the indicated concentration, or mock-treatment was performed in which cell culture media only (no compound) was added. Identical treatments were repeated after 48 hours. After an additional 24 hours, cells were fixed for 25 minutes in 3% paraformaldehyde. After a PBS wash and a deionized water wash, the cells were incubated with 0.015% Thioflavin S in 50% ethanol for 25 minutes, washed twice for four minutes in 50% ethanol and twice for five minutes in deionized water and then mounted using an aqueous-based mountant designed to protect against photobleaching. Aggregates that bind to Thioflavin S were detected with a fluorescent microscope using a High Q FITC filter set (480 to 535 nm bandwidth) and a 20× objective lens unless otherwise indicated. Between 8 and 20 (usually 16-18) representative images per condition were selected and imaged using Q Capture software by an experimenter who was blinded to treatment conditions. To assess the amount of Thioflavin S-positive aggregates, the total area per field covered by Thioflavin S-positive inclusions was determined by image analysis and quantitation. […] Spurious, non-cell associated fluorescence was manually removed. Unless indicated otherwise, comparisons between groups were made by comparing mean relative amounts of Thioflavin S-positive inclusions for a given treatment condition (i.e. cells treated with rotenone only versus cells treated with rotenone and test compound at a given concentration). Statistical analyses were performed with GraphPad Prism (GraphPad Inc). Differences between means (two samples) were assessed by the Student's t test. Differences among multiple means were assessed by one-factor ANOVA followed by Dunnett's post hoc test, compared to rotenone only treated cells. […]

In the case of `Cn1cnc2c1c(=O)n(Cc1ccc(O)c(O)c1)c(=O)n2Cc1ccc(O)c(O)c1` [PD-150, 7-Methyl-1,3-bis(3′,4′-dihydroxy)benzylxanthine], in series [1], the AUC-brain was 3,048 min*ng/g, the Cmax-brain is listed as 99.5 ng/g, the AUC was 2130 ng·h/mL and the Cmax was found to be 3280 ng/mL.
Take `Cn1c(=O)n(Cc2ccc(O)c(O)c2)c(=O)c2c1ncn2Cc1ccc(O)c(O)c1` [PD-151, 3-Methyl-1,7-bis(3′,4′-dihydroxybenzyl)xanthine]: in series [2] (500 nM rotenone, 500 nM compound), the “reduction of rotenone-induced Thioflavin S-positive aggregates relative to rotenone only-treated cells” value was found to be 52%. The “reduction of rotenone-induced Thioflavin S-positive aggregates relative to rotenone only-treated cells” value in series [2] (500 nM rotenone, 2 μM compound) is given as 84%. Further, the “reduction of rotenone-induced Thioflavin S-positive aggregates relative to rotenone only-treated cells” value in series [2] (2 μM rotenone, 2 μM compound) is on record as 58%. The “reduction of rotenone-induced Thioflavin S-positive aggregates relative to rotenone only-treated cells” value in series [2] (2 μM rotenone, 5 μM compound) is listed as 60%. In series [1], the AUC-brain is listed as 2,147 min*ng/g, the Cmax-brain is reported as 59.2 ng/g, the AUC is 3540 ng·h/mL and the highest level (Cmax) was 5340 ng/mL.
In the case of `Cn1c(=O)c2c(ncn2Cc2ccc(O)c(O)c2)n(Cc2ccc(O)c(O)c2)c1=O` [PD-152], the “reduction of rotenone-induced Thioflavin S-positive aggregates relative to rotenone only-treated cells” value in series [2] (500 nM rotenone, 2 μM compound) is recorded as 54%; in series [2] (500 nM rotenone, 5 μM compound) it was 55%; in series [2] (2 μM rotenone, 500 nM compound), 78%; in series [2] (2 μM rotenone, 2 μM compound), 79%.

As a reminder, the AUC is the area under the concentration-time curve, a measure of exposure. A low value points to low exposure. Broadly, the Cmax is the maximum level reached in the sampled fluid or tissue.
